In US7550469B2, “Heterocyclic amide derivatives and their use as dopamine D3 receptor ligands” (Aventis Pharmaceuticals Inc., priority 2001, dated 2009):
Where two headings read alike, the source gives them in different places.

Biological target: T1, cloned human dopamine D3 receptors (Homo sapiens, UniProt P35462)
T1 construct: expressed in transfected cells; membrane homogenate
Assay: [N-Methyl-3H]Spiroperidol binding to cloned human dopamine D3 receptors (Protocol 1)
In short: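 Radioligand displacement with [N-methyl-3H]spiroperidol used a physiological-salt Tris buffer (0.05 M, pH 7.7; NaCl 120 mM, KCl 5 mM, CaCl2 2 mM, MgCl2 1 mM) and membranes of a high-expressing stable CHO clone carrying human D3. Total ligand concentration came from measured added CPM; 0.1% ascorbic acid was optional for oxidizable compounds.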

[1] = the 14th table, read-out: D3 Ki
[2] = the 13th table, unit inferred, read-out: D3Ki
[3] = the 15th table, read-out: D3 Ki

T1 sequence (P35462 whole entry): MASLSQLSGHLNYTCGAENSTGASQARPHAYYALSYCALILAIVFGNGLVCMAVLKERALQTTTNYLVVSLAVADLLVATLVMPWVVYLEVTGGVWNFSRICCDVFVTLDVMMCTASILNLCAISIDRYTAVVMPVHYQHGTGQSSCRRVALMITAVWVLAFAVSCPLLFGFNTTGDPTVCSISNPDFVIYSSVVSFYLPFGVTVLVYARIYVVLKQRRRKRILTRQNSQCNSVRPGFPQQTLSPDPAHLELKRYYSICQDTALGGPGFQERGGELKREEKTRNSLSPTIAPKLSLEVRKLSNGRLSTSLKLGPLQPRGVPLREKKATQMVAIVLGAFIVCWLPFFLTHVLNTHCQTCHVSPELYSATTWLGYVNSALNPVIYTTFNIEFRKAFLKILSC

| Ki (Table 2, read-out: D3K1) [nM] | Ki [2] [nM] | Compound | Ki [3] [nM] | also measured |
| --- | --- | --- | --- | --- |
| 296 |  | O=C(Cc1cccs1)NCCCCN1CCN(c2c(-c3ccccc3)sc3cc(F)ccc23)CC1 [compound 815884] |  |  |
|  | 161 | O=C(NCCCCCN1CCC(c2noc3ccsc23)CC1)c1cc2ccccc2s1 [compound 816196] |  |  |
|  | 116 | O=C(NCCCCCN1CCC(c2noc3ccsc23)CC1)c1ccc2ccccc2c1 [compound 816197] |  |  |
|  | 110 | CCOc1ccc(C(=O)NCCCCCN2CCC(c3noc4ccsc34)CC2)cc1 [compound 816198] |  |  |
|  | 157 | O=C(NCCCCCN1CCC(c2noc3ccsc23)CC1)c1ccc(Cl)cc1 [compound 816199] |  |  |
|  | 326 | CCCCCCC(=O)NCCCCCN1CCC(c2noc3ccsc23)CC1 [compound 816202] |  |  |
|  | 94.1 | C=CCCCCCCC(=O)NCCCCCN1CCC(c2noc3ccsc23)CC1 [compound 816203] |  |  |
|  | 218 | O=C(NCCCCCN1CCC(c2noc3ccsc23)CC1)C(Cl)c1ccccc1 (stereo not drawn) [compound 816204] |  |  |
|  | 455 | O=C(NCCCCCN1CCC(c2noc3ccsc23)CC1)C1CCCC1 [compound 816205] |  |  |
|  | 505 | O=C(Cc1cc2ccccc2s1)NCCCCCN1CCC(c2noc3ccsc23)CC1 [compound 816206] |  |  |
|  | 182 | O=C(NCCCCCN1CCC(c2noc3ccsc23)CC1)c1ccccc1[N+](=O)[O-] [compound 816207] |  |  |
|  | 84.9 | O=C(NCCCCCN1CCC(c2noc3ccsc23)CC1)c1ccc(-c2ccccc2)cc1 [compound 816208] |  |  |
|  | 224 | O=C(NCCCCCN1CCC(c2noc3ccsc23)CC1)c1ccccc1C(F)(F)F [compound 816211] |  |  |
|  | 570 | O=C(NCCCCCN1CCC(c2noc3ccsc23)CC1)c1ccccc1 [compound 816212] |  |  |
|  | 264 | O=C(NCCCCCN1CCC(c2noc3ccsc23)CC1)c1cccc(Cl)c1 [compound 816214] |  |  |
|  | 272 | COc1ccc(C(=O)NCCCCCN2CCC(c3noc4ccsc34)CC2)cc1OC [compound 816215] |  |  |
|  | 364 | O=C(NCCCCCN1CCC(c2noc3ccsc23)CC1)c1ccc(F)cc1 [compound 816217] |  |  |
|  | 316 | CCCCc1ccc(C(=O)NCCCCCN2CCC(c3noc4ccsc34)CC2)cc1 [compound 816218] |  |  |
|  | 132 | CCCCCCc1ccc(C(=O)NCCCCCN2CCC(c3noc4ccsc34)CC2)cc1 [compound 816219] |  |  |
| 3.7 |  | O=C(NCCCCCCN1CCN(c2csc3cc(C(F)(F)F)ccc23)CC1)c1cc2ccccc2[nH]1 [compound 816315] |  | Ki (read-out: D3K1): 3.7 nM; Ki [1]: 3.7 nM |
| 2.7 |  | O=C(NCCCCCCN1CCN(c2csc3cc(C(F)(F)F)ccc23)CC1)c1ccc2[nH]ccc2c1 [compound 816316] |  | Ki (read-out: D3K1): 2.7 nM; Ki [1]: 2.7 nM |

More lines, now with the values behind:

| Compound | Ki (Table 2, read-out: D3K1) [nM] | Ki [2] [nM] | Ki [3] [nM] | also measured |
| --- | --- | --- | --- | --- |
| O=C(N[C@H](CO)CCCN1CCN(c2csc3cc(C(F)(F)F)ccc23)CC1)c1cnccn1 [compound 815702] | 439 |  |  | Ki (read-out: D3K1): 439 nM; Ki [1]: 439 nM |
| CCn1cc(C(=O)NC(CO)CCCN2CCN(c3csc4cc(C(F)(F)F)ccc34)CC2)c(=O)c2ccc(C)nc21 (stereo not drawn) [compound 815704] | 137 |  |  | Ki (read-out: D3K1): 137 nM; Ki [1]: 137 nM |
| O=C(N[C@H](CO)CCCN1CCN(c2csc3cc(C(F)(F)F)ccc23)CC1)c1cc2ccccc2s1 [compound 815708] | 180 |  |  | Ki (read-out: D3K1): 180 nM; Ki [1]: 180 nM |
| O=C(N[C@H](CO)CCCN1CCN(c2csc3cc(C(F)(F)F)ccc23)CC1)c1ccc2c(c1)S(=O)(=O)c1ccccc1C2=O [compound 815709] | 124 |  |  | Ki (read-out: D3K1): 124 nM; Ki [1]: 124 nM |
| O=C(N[C@H](CO)CCCN1CCN(c2csc3cc(C(F)(F)F)ccc23)CC1)c1cc2ccc(Cl)cc2s1 [compound 815710] | 210 |  |  | Ki (read-out: D3K1): 210 nM; Ki [1]: 210 nM |
| O=C(NCCCCN1CCN(c2c(-c3ccccc3)sc3cc(F)ccc23)CC1)c1cccc(F)c1 [compound 815870] | 28.4 |  |  | Ki [1]: 28.4 nM |
| O=C(NCCCCN1CCN(c2c(-c3ccccc3)sc3cc(F)ccc23)CC1)c1ccc(C(F)(F)F)cc1 [compound 815871] | 796 |  |  | Ki [1]: 796 nM |
| O=C(NCCCCN1CCN(c2c(-c3ccccc3)sc3cc(F)ccc23)CC1)c1ccc(-c2ccccc2)cc1 [compound 815872] | 567 |  |  |  |
| O=C(NCCCCN1CCN(c2c(-c3ccccc3)sc3cc(F)ccc23)CC1)c1cc2ccccc2s1 [compound 815873] | 263 |  |  |  |
| O=C(NCCCCN1CCN(c2c(-c3ccccc3)sc3cc(F)ccc23)CC1)c1ccc(Br)cc1 [compound 815874] | 282 |  |  |  |
| O=C(NCCCCN1CCN(c2c(-c3ccccc3)sc3cc(F)ccc23)CC1)c1cccs1 [compound 815879] | 292 |  |  |  |
| O=C(NCCCCN1CCN(c2c(-c3ccccc3)sc3cc(F)ccc23)CC1)c1ccc(Cl)cc1 [compound 815880] | 837 |  |  |  |
| O=C(NCCCCN1CCN(c2c(-c3ccccc3)sc3cc(F)ccc23)CC1)c1ccc(F)cc1 [compound 815883] | 339 |  |  |  |
| O=C(NCCCCN1C2CCC1CC(c1noc3cc(F)ccc13)C2)c1cccs1 (stereo not drawn) [compound 816323] |  |  | 832 |  |
| CCCCOc1ccc(C(=O)NCCCCN2C3CCC2CC(c2noc4cc(F)ccc24)C3)cc1 (stereo not drawn) [compound 816325] |  |  | 58.3 |  |
| O=C(NCCCCN1C2CCC1CC(c1noc3cc(F)ccc13)C2)c1ccc(C(F)(F)F)cc1 (stereo not drawn) [compound 816326] |  |  | 223 |  |

| Compound | Ki (Table 2, read-out: D3K1) [nM] | Ki [2] [nM] | Ki [3] [nM] | also measured |
| --- | --- | --- | --- | --- |
| O=C(Cc1ccccc1)NCCCCN1C2CCC1CC(c1noc3cc(F)ccc13)C2 (stereo not drawn) [compound 816327] |  |  | 392 |  |
| O=C(NCCCCN1C2CCC1CC(c1noc3cc(F)ccc13)C2)c1cccc(F)c1F (stereo not drawn) [compound 816329] |  |  | 356 |  |
| O=C(NCCCCN1C2CCC1CC(c1noc3cc(F)ccc13)C2)c1cccc2ccccc12 (stereo not drawn) [compound 816330] |  |  | 186 |  |
| O=C(NCCCCN1C2CCC1CC(c1noc3cc(F)ccc13)C2)c1ccc(-c2ccccc2)cc1 (stereo not drawn) [compound 816331] |  |  | 44.2 |  |
| COc1ccc(C(=O)NCCCCN2C3CCC2CC(c2noc4cc(F)ccc24)C3)cc1OC (stereo not drawn) [compound 816332] |  |  | 588 |  |
| O=C(NCCCCN1C2CCC1CC(c1noc3cc(F)ccc13)C2)c1ccc(F)cc1 (stereo not drawn) [compound 816333] |  |  | 474 |  |
| O=C(NCCCCN1C2CCC1CC(c1noc3cc(F)ccc13)C2)c1cc2ccccc2s1 (stereo not drawn) [compound 816334] |  |  | 64.6 |  |
| O=C(NCCCCN1C2CCC1CC(c1noc3cc(F)ccc13)C2)c1ccc(Br)cc1 (stereo not drawn) [compound 816335] |  |  | 268 |  |
| CSc1ncccc1C(=O)NCCCCN1C2CCC1CC(c1noc3cc(F)ccc13)C2 (stereo not drawn) [compound 816338] |  |  | 692 |  |
| O=C(NCCCCN1C2CCC1CC(c1noc3cc(F)ccc13)C2)c1ccccc1C(F)(F)F (stereo not drawn) [compound 816340] |  |  | 427 |  |
| CCCc1ccc(C(=O)NCCCCN2C3CCC2CC(c2noc4cc(F)ccc24)C3)cc1 (stereo not drawn) [compound 816341] |  |  | 50.9 |  |
| COc1ccccc1C(=O)NCCCCN1C2CCC1CC(c1noc3cc(F)ccc13)C2 (stereo not drawn) [compound 816343] |  |  | 344 |  |
| Cc1ccc(C(=O)NCCCCN2C3CCC2CC(c2noc4cc(F)ccc24)C3)cc1 (stereo not drawn) [compound 816344] |  |  | 378 |  |
| CCCCCCc1ccc(C(=O)NCCCCN2C3CCC2CC(c2noc4cc(F)ccc24)C3)cc1 (stereo not drawn) [compound 816345] |  |  | 95.6 |  |
| O=C(NCCCCN1C2CCC1CC(c1noc3ccccc13)C2)c1cccs1 (stereo not drawn) [compound 816519] |  |  | 305 |  |
| O=C(NCCCCN1C2CCC1CC(c1noc3ccccc13)C2)c1ccc(F)cc1 (stereo not drawn) [compound 816520] |  |  | 292 |  |
